Assay [1] relates to Puccinia triticina. Briefly: Wheat brown rust (PUCCRT) disease control on wheat seedlings. It is filed as in vivo. The conditions noted are these: High volume application, 100 ppm. Here is the method:
Technical grades of materials were dissolved in acetone, which were then mixed with nine volumes of water containing 110 ppm Triton X-100. The fungicide solutions were applied onto wheat seedlings using an automated booth sprayer to run-off. All sprayed plants were allowed to air dry prior to further handling. All fungicides were evaluated using the aforementioned method for their activity vs. all target diseases, unless stated otherwise. Wheat leaf blotch and brown rust activity were also evaluated using track spray applications, in which case the fungicides were formulated as EC formulations, containing 0.1% Trycol 5941 in the spray solutions. Example B: Evaluation of Fungicidal Activity: Wheat Brown Rust (Puccinia triticina; Synonym: Puccinia recondita f. sp. tritici; Bayer Code PUCCRT) Wheat plants (variety Yuma) were grown from seed in a greenhouse in 50% mineral soil/50% soil-less Metro mix until the first leaf was fully emerged, with 7-10 seedlings per pot. These plants were inoculated with an aqueous spore suspension of Puccinia triticina either prior to or after fungicide treatments. After inoculation the plants were kept in a dark dew room at 22° C. with 100% relative humidity overnight to permit spores to germinate and infect the leaf. The plants were then transferred to a greenhouse set at 24° C. for disease to develop. Fungicide formulation, application and disease assessment followed the procedures as described in the Example A.

The test system of assay [2] is Zymoseptoria tritici. Kind of assay: Leaf blotch of wheat (SEPTTR) disease control on wheat seedlings. Format: in vivo. The conditions noted are these: High volume application, 100 ppm. Here is the method: Example A: Evaluation of Fungicidal Activity: Leaf Blotch of Wheat (Zymoseptoria tritici; Bayer Code […]) Technical grades of materials were dissolved in acetone, which were then mixed with nine volumes of water containing 110 ppm Triton X-100. The fungicide solutions were applied onto wheat seedlings using an automated booth sprayer to run-off. All sprayed plants were allowed to air dry prior to further handling. All fungicides were evaluated using the aforementioned method for their activity vs. all target diseases, unless stated otherwise. Wheat leaf blotch and brown rust activity were also evaluated using track spray applications, in which case the fungicides were formulated as EC formulations, containing 0.1% Trycol 5941 in the spray solutions. Wheat plants (variety Yuma) were grown from seed in a greenhouse in 50% mineral soil/50% soil-less Metro mix until the first leaf was fully emerged, with 7-10 seedlings per pot. These plants were inoculated with an aqueous spore suspension of Zymoseptoria tritici either prior to or after fungicide treatments. After inoculation the plants were kept in 100% relative humidity (one day in a dark dew chamber followed by two to three days in a lighted dew chamber at 20° C.) to permit spores to germinate and infect the leaf. The plants were then transferred to a greenhouse set at 20° C. for disease to develop. When disease symptoms were fully expressed on the 1st leaves of untreated plants, infection levels were assessed on a scale of 0 to 100 percent disease severity. Percent disease control was calculated using the ratio of disease severity on treated plants relative to untreated plants.

Setting [3] is: 24 h, 1 Day Protectant, read-out: PUCCRT disease control rating, 1DP.
The mark [4] stands for this setting: 72 h, 3 Day Curative, read-out: PUCCRT disease control rating, 3DC.
Setting [5] is: 24 h, 1 Day Protectant, read-out: SEPTTR disease control rating, 1DP.
The mark [6] stands for this setting: 72 h, 3 Day Curative, read-out: SEPTTR disease control rating, 3DC.

Like-named read-outs stand apart in the source and are kept apart here.

Pest or weed control data for 24 molecules are collected here from patent US20200399222A1, “PICOLINAMIDES AS FUNGICIDES” (Dow AgroSciences LLC, priority 2018, published 2020).

Consider `COc1ccnc(C(=O)N[C@@H](C)C(=O)O[C@@H](C)[C@@H](C)c2ccc(C)cc2C)c1O` [Example 116], for which the pest or weed control at 100 ppm in assay [1] (setting [3]) is above 80%; in assay [1] (setting [4]), above 80%; in assay [2] (setting [5]) it was below 80%; in assay [2] (setting [6]) it was above 80%.

Regarding `COc1ccnc(C(=O)N[C@@H](C)C(=O)O[C@H](C)[C@H](C)c2ccc(C)cc2C)c1O` [Example 117], the pest or weed control at 100 ppm in assay [1] (setting [3]), in assay [1] (setting [4]), in assay [2] (setting [5]) and in assay [2] (setting [6]) was below 80% in each case.

With `COc1ccnc(C(=O)NCC(=O)O[C@@H](C)[C@@H](C)c2ccc(F)cc2C)c1O` [Example 118], the pest or weed control at 100 ppm in assay [1] (setting [3]) was above 80%; in assay [1] (setting [4]), above 80%; in assay [2] (setting [5]), below 0%; in assay [2] (setting [6]) it was below 80%.

Turning to `COc1ccnc(C(=O)NCC(=O)O[C@@H](C)[C@H](C)c2ccc(F)cc2C)c1O` [Example 119], the pest or weed control at 100 ppm in assay [1] (setting [3]) is above 80%; in assay [1] (setting [4]) it was below 80%; in assay [2] (setting [5]) it was below 0%; in assay [2] (setting [6]) it was below 80%.

As for `COc1ccnc(C(=O)NCC(=O)O[C@@H](C)[C@H](C)c2ccccc2C)c1O` [Example 120], the pest or weed control at 100 ppm in assay [1] (setting [3]) is below 80%; in assay [1] (setting [4]), below 80%; in assay [2] (setting [5]), below 0%; in assay [2] (setting [6]) it was below 80%.

With `COc1ccnc(C(=O)NCC(=O)O[C@@H](C)[C@@H](C)c2ccc(F)cc2)c1O` [Example 121], the pest or weed control at 100 ppm in assay [1] (setting [3]) was above 80%; in assay [1] (setting [4]), above 80%; in assay [2] (setting [5]) it was below 0%; in assay [2] (setting [6]) it was below 80%.

Consider `COc1ccc([C@H](C)[C@H](C)OC(=O)CNC(=O)c2nccc(OC)c2O)c(C)c1` [Example 122], for which the pest or weed control at 100 ppm in assay [1] (setting [3]) was above 80%; in assay [1] (setting [4]), above 80%; in assay [2] (setting [5]), below 80%; in assay [2] (setting [6]), below 80%.

For `COc1ccnc(C(=O)NCC(=O)O[C@H](C)[C@H](C)c2ccc(F)cc2C)c1O` [Example 123], the pest or weed control at 100 ppm in assay [1] (setting [3]) was above 80%; in assay [1] (setting [4]), below 80%; in assay [2] (setting [5]), below 0%; in assay [2] (setting [6]) it was below 80%.

Consider `COc1ccnc(C(=O)NCC(=O)O[C@H](C)[C@@H](C)c2ccc(F)cc2C)c1O` [Example 124], for which the pest or weed control at 100 ppm in assay [1] (setting [3]) was below 80%; in assay [1] (setting [4]), below 0%; in assay [2] (setting [5]), below 0%; in assay [2] (setting [6]), below 80%.

For the molecule `COc1ccnc(C(=O)NCC(=O)O[C@H](C)[C@@H](C)c2ccccc2C)c1O` [Example 125], the pest or weed control at 100 ppm in assay [1] (setting [3]) is below 80%; in assay [1] (setting [4]), below 0%; in assay [2] (setting [5]), below 0%; in assay [2] (setting [6]), below 80%.

`COc1ccnc(C(=O)NCC(=O)O[C@H](C)[C@H](C)c2ccc(F)cc2)c1O` [Example 126]: the pest or weed control at 100 ppm in assay [1] (setting [3]) is above 80%; in assay [1] (setting [4]), below 80%; in assay [2] (setting [5]) it was below 0%; in assay [2] (setting [6]), below 80%.

With `COc1ccc([C@@H](C)[C@@H](C)OC(=O)CNC(=O)c2nccc(OC)c2O)c(C)c1` [Example 127], the pest or weed control at 100 ppm is below 80% in assay [1] (setting [3]), below 80% in assay [1] (setting [4]), below 0% in assay [2] (setting [5]) and below 80% in assay [2] (setting [6]).

As to `COc1ccnc(C(=O)N[C@@H](C)C(=O)O[C@@H](C)[C@H](C)c2ccc(F)cc2C)c1O` [Example 129], the pest or weed control at 100 ppm in assay [1] (setting [3]) was above 80%; in assay [1] (setting [4]), below 80%; in assay [2] (setting [5]), below 80%; in assay [2] (setting [6]) it was below 80%.

For `COc1ccnc(C(=O)N[C@@H](C)C(=O)O[C@@H](C)[C@H](C)c2ccccc2C)c1O` [Example 130], the pest or weed control at 100 ppm is above 80% in assay [1] (setting [3]), above 80% in assay [1] (setting [4]), below 80% in assay [2] (setting [5]) and below 80% in assay [2] (setting [6]).

In the case of `COc1ccnc(C(=O)N[C@@H](C)C(=O)O[C@@H](C)[C@@H](C)c2ccc(F)cc2)c1O` [Example 131], the pest or weed control at 100 ppm in assay [1] (setting [3]) is above 80%; in assay [1] (setting [4]) it was above 80%; in assay [2] (setting [5]), below 80%; in assay [2] (setting [6]), below 80%.

On to `COc1ccc([C@H](C)[C@H](C)OC(=O)[C@H](C)NC(=O)c2nccc(OC)c2O)c(C)c1` [Example 132], for which the pest or weed control at 100 ppm is above 80% in assay [1] (setting [3]), above 80% in assay [1] (setting [4]), above 80% in assay [2] (setting [5]) and below 80% in assay [2] (setting [6]).

As to `COc1ccnc(C(=O)N[C@@H](C)C(=O)O[C@H](C)[C@H](C)c2ccc(F)cc2C)c1O` [Example 133], the pest or weed control at 100 ppm in assay [1] (setting [3]) was above 80%; in assay [1] (setting [4]), below 80%; in assay [2] (setting [5]) it was below 80%; in assay [2] (setting [6]), below 80%.

For `COc1ccnc(C(=O)N[C@@H](C)C(=O)O[C@H](C)[C@@H](C)c2ccc(F)cc2C)c1O` [Example 134], the pest or weed control at 100 ppm in assay [1] (setting [3]), in assay [1] (setting [4]), in assay [2] (setting [5]) and in assay [2] (setting [6]) was below 80% in each case.

For `COc1ccnc(C(=O)N[C@@H](C)C(=O)O[C@H](C)[C@@H](C)c2ccccc2C)c1O` [Example 135], the pest or weed control at 100 ppm in assay [1] (setting [3]), in assay [1] (setting [4]), in assay [2] (setting [5]) and in assay [2] (setting [6]) was below 80% throughout.

In the case of `COc1ccnc(C(=O)N[C@@H](C)C(=O)O[C@H](C)[C@H](C)c2ccc(F)cc2)c1O` [Example 136], the pest or weed control at 100 ppm in assay [1] (setting [3]) was above 80%; in assay [1] (setting [4]), below 80%; in assay [2] (setting [5]), below 80%; in assay [2] (setting [6]), below 80%.

With `COc1ccc([C@@H](C)[C@@H](C)OC(=O)[C@H](C)NC(=O)c2nccc(OC)c2O)c(C)c1` [Example 137], the pest or weed control at 100 ppm was above 80% in assay [1] (setting [3]), below 80% in assay [1] (setting [4]), below 80% in assay [2] (setting [5]) and below 80% in assay [2] (setting [6]).

As to `COc1ccnc(C(=O)N[C@H](C(=O)O[C@@H](C)[C@@H](C)c2ccc(F)cc2C)C(C)C)c1O` [Example 138], the pest or weed control at 100 ppm is above 80% in assay [1] (setting [3]), above 80% in assay [1] (setting [4]), above 80% in assay [2] (setting [5]) and below 80% in assay [2] (setting [6]).

Regarding `COc1ccnc(C(=O)N[C@H](C(=O)O[C@@H](C)[C@H](C)c2ccc(F)cc2C)C(C)C)c1O` [Example 139], the pest or weed control at 100 ppm in assay [1] (setting [3]) was below 80%; in assay [1] (setting [4]), below 0%; in assay [2] (setting [5]), below 80%; in assay [2] (setting [6]), below 80%.

As for `COc1ccnc(C(=O)N[C@H](C(=O)O[C@@H](C)[C@H](C)c2ccccc2C)C(C)C)c1O` [Example 140], the pest or weed control at 100 ppm in assay [1] (setting [3]) is above 80%; in assay [1] (setting [4]) it was below 80%; in assay [2] (setting [5]) it was below 80%; in assay [2] (setting [6]), below 80%.
